One may read the IC50 as the midpoint of a concentration-inhibition curve.

Bounds are passed on as bounds.

This experiment deals with T1, TNKS1 (Homo sapiens, UniProt O95271).
T1 construct: purchased BPS Bioscience, San Diego, USA 80579 (TNKS1 Histone Ribosylation Assay Kit)
T1 sequence (O95271 1-1327): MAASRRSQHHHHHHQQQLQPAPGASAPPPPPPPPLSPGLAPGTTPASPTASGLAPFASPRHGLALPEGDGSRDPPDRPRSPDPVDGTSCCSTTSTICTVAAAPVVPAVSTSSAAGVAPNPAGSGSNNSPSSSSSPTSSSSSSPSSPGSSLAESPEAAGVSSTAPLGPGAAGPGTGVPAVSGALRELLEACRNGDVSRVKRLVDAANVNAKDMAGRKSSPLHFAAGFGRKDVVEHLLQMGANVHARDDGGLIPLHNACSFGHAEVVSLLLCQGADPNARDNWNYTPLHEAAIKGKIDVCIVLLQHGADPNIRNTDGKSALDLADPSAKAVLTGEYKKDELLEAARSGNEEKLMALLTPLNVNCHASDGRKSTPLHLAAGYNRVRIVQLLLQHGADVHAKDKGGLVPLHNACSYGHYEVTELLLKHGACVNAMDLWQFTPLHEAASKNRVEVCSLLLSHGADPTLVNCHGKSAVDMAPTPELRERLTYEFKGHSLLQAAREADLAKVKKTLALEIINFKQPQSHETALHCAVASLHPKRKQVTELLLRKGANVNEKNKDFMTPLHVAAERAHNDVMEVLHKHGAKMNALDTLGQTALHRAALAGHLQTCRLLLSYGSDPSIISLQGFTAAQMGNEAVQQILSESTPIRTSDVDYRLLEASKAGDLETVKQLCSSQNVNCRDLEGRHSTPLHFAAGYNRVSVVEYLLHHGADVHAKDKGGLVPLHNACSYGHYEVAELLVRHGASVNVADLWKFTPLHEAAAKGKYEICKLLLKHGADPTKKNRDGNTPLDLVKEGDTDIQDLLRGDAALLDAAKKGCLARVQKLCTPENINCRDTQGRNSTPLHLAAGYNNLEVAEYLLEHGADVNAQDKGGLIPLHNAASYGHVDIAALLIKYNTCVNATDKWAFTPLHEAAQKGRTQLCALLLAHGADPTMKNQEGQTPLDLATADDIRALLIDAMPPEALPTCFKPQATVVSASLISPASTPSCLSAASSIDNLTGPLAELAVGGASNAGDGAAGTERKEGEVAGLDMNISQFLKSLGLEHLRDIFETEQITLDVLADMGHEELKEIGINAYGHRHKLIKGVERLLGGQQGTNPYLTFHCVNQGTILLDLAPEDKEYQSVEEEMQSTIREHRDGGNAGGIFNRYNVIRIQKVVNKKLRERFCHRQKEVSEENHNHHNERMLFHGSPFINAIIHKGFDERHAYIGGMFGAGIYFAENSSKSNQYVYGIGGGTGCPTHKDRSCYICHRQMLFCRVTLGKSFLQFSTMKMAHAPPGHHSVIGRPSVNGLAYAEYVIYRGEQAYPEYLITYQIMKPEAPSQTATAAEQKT
Briefly: TNKS1 Assay B (auto-parsylation, [3H]-NAD+ SPA). It counts as biochemical. The note with it: 6 nM TNKS1, auto-parsylation, over night at room temperature.
With `CNC(=O)c1ncoc1C(=O)N[C@H]1CC[C@H](C(=O)Nc2ccc(F)cc2Cl)CC1` [Example 29, N^5-{trans-4-[(2-chloro-4-fluorophenyl)carbamoyl]cyclohexyl}-N^4-methyl-1,3-oxazole-4,5-dicarboxamide], the IC50 stood at 650 nM.
As for `Cc1cc(C2CC2)nc2c(C(=O)N[C@H]3CC[C@H](C(=O)Nc4ccc(F)cc4Cl)CC3)cnn12` [Example 62, N-{trans-4-[(2-chloro-4-fluorophenyl)carbamoyl]cyclohexyl}-5-cyclopropyl-7-methylpyrazolo[1,5-a]pyrimidine-3-carboxamide], the IC50 is over 10000 nM.
As for `CC(C)NCCNC(=O)c1nc[nH]c1C(=O)N[C@H]1CC[C@H](C(=O)Nc2ccc(F)cc2Cl)CC1` [Example 77, N^5-{trans-4-[(2-chloro-4-fluorophenyl)carbamoyl]cyclohexyl}-N^4-[2-(isopropylamino)ethyl]-1H-imidazole-4,5-dicarboxamide], the IC50 was found to be 37 nM. This lies in the double-digit nanomolar range.
Turning to `COCCNC(=O)c1nc[nH]c1C(=O)N[C@H]1CC[C@@]2(CCN(c3cc(C)c(F)cc3Cl)C2=O)CC1` [Example 334, N^5-[(trans)-2-(2-chloro-4-fluoro-5-methylphenyl)-1-oxo-2-azaspiro[4.5]dec-8-yl]-N^4-(2-methoxyethyl)-1H-imidazole-4,5-dicarboxamide], the IC50 was 12 nM.
Next, `O=C(N[C@H]1CC[C@H](C(=O)Nc2ccc(F)cc2Cl)CC1)c1cnc2cccnn12` [Example 45, N-{trans-4-[(2-chloro-4-fluorophenyl)carbamoyl]cyclohexyl}imidazo[1,2-b]pyridazine-3-carboxamide]: 310 nM.
Under `COCC(C)NC(=O)c1nc[nH]c1C(=O)N[C@H]1CC[C@H](C(=O)Nc2ccc(F)cc2Cl)CC1` (stereo partly drawn) [Example 82, N^5-{trans-4-[(2-chloro-4-fluorophenyl)carbamoyl]cyclohexyl}-N^4-(1-methoxypropan-2-yl)-1H-imidazole-4,5-dicarboxamide] stands 300 nM; under `Cc1cc(C)n2ncc(C(=O)N[C@H]3CC[C@@]4(CCCN(c5cc(C)c(F)cc5Cl)C4=O)CC3)c2n1` [Example 302, N-[(trans)-2-(2-chloro-4-fluoro-5-methylphenyl)-1-oxo-2-azaspiro[5.5]undec-9-yl]-5,7-dimethylpyrazolo[1,5-a]pyrimidine-3-carboxamide], 170 nM; under `CNC(=O)c1nc[nH]c1C(=O)N[C@H]1CC[C@H](C(=O)Nc2c(Br)cc(F)c(F)c2F)CC1` [Example 27, N^5-{trans-4-[(6-bromo-2,3,4-trifluorophenyl)carbamoyl]cyclohexyl}-N^4-methyl-1H-imidazole-4,5-dicarboxamide], 30 nM.
Under `O=C(N[C@H]1CC[C@H](C(=O)Nc2ccc(F)cc2Cl)CC1)c1cnc2ccc(O)nn12` [Example 360, N-{trans-4-[(2-chloro-4-fluorophenyl)carbamoyl]cyclohexyl}-6-hydroxyimidazo[1,2-b]pyridazine-3-carboxamide] stands 2500 nM; under `CNC(=O)c1[nH]cnc1C(=O)N[C@H]1CC[C@H](C(=O)Nc2ccc(F)cc2Cl)CC1(F)F` (single isomer, unassigned) [Example 33, N^4-{(trans)-4-[(2-chloro-4-fluorophenyl)carbamoyl]-2,2-difluorocyclohexyl}-N^5-methyl-1H-imidazole-4,5-dicarboxamide], 720 nM; under `CNC(=O)c1nc[nH]c1C(=O)N[C@H]1CC[C@H](C(=O)Nc2cc(N3CCOCC3)ccc2Cl)CC1` [Example 88, N^5-(trans-4-{[2-chloro-5-(morpholin-4-yl)phenyl]carbamoyl}cyclohexyl)-N^4-methyl-1H-imidazole-4,5-dicarboxamide], 3600 nM.
Compound `O=C(N[C@H]1CC[C@H](C(=O)Nc2ccc(F)cc2Cl)CC1)c1cnc2ccc(N3CCOCC3)nn12` [Example 48, N-{trans-4-[(2-chloro-4-fluorophenyl)carbamoyl]cyclohexyl}-6-(morpholin-4-yl)imidazo[1,2-b]pyridazine-3-carboxamide] gave an IC50 of 410 nM. This IC50 lies about 8.8-fold lower than the previous one.
`CC(=O)c1cnc2c(C(=O)N[C@H]3CC[C@H](C(=O)Nc4ccc(F)cc4Cl)CC3)cnn2c1C` [Example 46, 6-acetyl-N-{trans-4-[(2-chloro-4-fluorophenyl)carbamoyl]cyclohexyl}-7-methylpyrazolo[1,5-a]pyrimidine-3-carboxamide] displayed an IC50 of 65 nM. This IC50 is about 6.3-fold lower than that of the compound before.

The values above are taken from patent publication US20180148418A1, “AMIDO-SUBSTITUTED CYCLOHEXANE DERIVATIVES” (Bayer Pharma Aktiengesellschaft, priority 2015, published 2018).
